The first test relates to Mus musculus. Description: CNS activity in po dosed mouse assessed as antagonism against pentylenetetrazole-induced response. It is filed as functional.
On to `COC(=O)c1nnc2n1-c1ccc(Cl)cc1C(c1ccccc1)=NC2`, for which the ED50 was 0.9 mg/kg.

Consider `[O-][N+]1=C(c2ccccc2)c2cc(Cl)ccc2-n2c(nnc2C(O)CO)C1` (configuration not stated), for which the ED50 was determined as 620 mg/kg.

Regarding `OCC(O)c1nnc2n1-c1ccc(Cl)cc1C(c1ccccc1)=NC2` (configuration not stated), the ED50 was 3.8 mg/kg.

On to `OCC(O)c1nnc2n1-c1ccc(Cl)cc1C(c1ccccc1F)=NC2` (configuration not stated), for which the ED50 stood at 1.5 mg/kg.

For `C=Cc1nnc2n1-c1ccc(Cl)cc1C(c1ccccc1Cl)=NC2`, the ED50 turned out to be 4.2 mg/kg.

`C=Cc1nnc2n1-c1ccc(Cl)cc1C(c1ccccc1F)=NC2`: the ED50 worked out at 1.3 mg/kg.

Take `CCOC(=O)NN(/C=C/c1nnc2n1-c1ccc(Cl)cc1C(c1ccccc1Cl)=NC2)C(=O)OCC`: the ED50 is > 800 mg/kg.

`NNC(=O)c1nnc2n1-c1ccc(Cl)cc1C(c1ccccc1)=NC2`: the ED50 was 2.8 mg/kg.

`CN(C)CCNC(=O)c1nnc2n1-c1ccc(Cl)cc1C(c1ccccc1)=NC2`: the ED50 was found to be 50 mg/kg.

On to `Cc1nnc2n1-c1ccc(Cl)cc1C(c1ccccc1)=[N+]([O-])C2`, for which the ED50 is 3.35 mg/kg.

For the compound `Cc1nnc2n1-c1ccc(Cl)cc1C(c1ccccc1)=NC2` [ALPRAZOLAM], the ED50 came out at 0.3 mg/kg.

As to `CNC1=Nc2ccc(Cl)cc2C(c2ccccc2)=[N+]([O-])C1` [CHLORDIAZEPOXIDE], the ED50 was determined as 8 mg/kg.

Turning to `CN1C(=O)CN=C(c2ccccc2)c2cc(Cl)ccc21` [DIAZEPAM], the ED50 came out at 1.4 mg/kg.

`Clc1ccc2c(c1)C(c1ccccc1)=NCc1nncn1-2` [ESTAZOLAM]: the ED50 turned out to be 1.1 mg/kg.

A further test has as its system Mus musculus. Description: CNS activity in po dosed mouse assessed as antifighting activity by foot shock test. In kind it is functional.
Consider `COC(=O)c1nnc2n1-c1ccc(Cl)cc1C(c1ccccc1)=NC2`, for which the ED50 amounted to 5 mg/kg.

Regarding `[O-][N+]1=C(c2ccccc2)c2cc(Cl)ccc2-n2c(nnc2C(O)CO)C1` (configuration not stated), the ED50 was > 100 mg/kg.

For `OCC(O)c1nnc2n1-c1ccc(Cl)cc1C(c1ccccc1)=NC2` (configuration not stated), the ED50 stood at 20 mg/kg.

Consider `OCC(O)c1nnc2n1-c1ccc(Cl)cc1C(c1ccccc1F)=NC2` (configuration not stated), for which the ED50 came to 5 mg/kg.

Consider `C=Cc1nnc2n1-c1ccc(Cl)cc1C(c1ccccc1Cl)=NC2`, for which the ED50 worked out at 6.25 mg/kg.

On to `C=Cc1nnc2n1-c1ccc(Cl)cc1C(c1ccccc1F)=NC2`, for which the ED50 worked out at 2.5 mg/kg.

As to `CCOC(=O)NN(/C=C/c1nnc2n1-c1ccc(Cl)cc1C(c1ccccc1Cl)=NC2)C(=O)OCC`, the ED50 was > 100 mg/kg.

On to `NNC(=O)c1nnc2n1-c1ccc(Cl)cc1C(c1ccccc1)=NC2`, for which the ED50 came out at 50 mg/kg.

Consider `CN(C)CCNC(=O)c1nnc2n1-c1ccc(Cl)cc1C(c1ccccc1)=NC2`, for which the ED50 was found to be 100 mg/kg.

For `Cc1nnc2n1-c1ccc(Cl)cc1C(c1ccccc1)=[N+]([O-])C2`, the ED50 was 100 mg/kg.

For `Cc1nnc2n1-c1ccc(Cl)cc1C(c1ccccc1)=NC2` [ALPRAZOLAM], the ED50 turned out to be 2.5 mg/kg.

In the case of `CNC1=Nc2ccc(Cl)cc2C(c2ccccc2)=[N+]([O-])C1` [CHLORDIAZEPOXIDE], the ED50 is 40 mg/kg.

Consider `CN1C(=O)CN=C(c2ccccc2)c2cc(Cl)ccc21` [DIAZEPAM], for which the ED50 came out at 10 mg/kg.

Take `Clc1ccc2c(c1)C(c1ccccc1)=NCc1nncn1-2` [ESTAZOLAM]: the ED50 is 0.5 mg/kg.

Another test has as its system Mus musculus. Description: CNS activity in po dosed mouse by inclined screen test. In kind it is functional.
As for `COC(=O)c1nnc2n1-c1ccc(Cl)cc1C(c1ccccc1)=NC2`, the 50% effect level (ED50) was put at a dose of 40 mg/kg.

Turning to `[O-][N+]1=C(c2ccccc2)c2cc(Cl)ccc2-n2c(nnc2C(O)CO)C1` (configuration not stated), the ED50 was > 400 mg/kg.

For `OCC(O)c1nnc2n1-c1ccc(Cl)cc1C(c1ccccc1)=NC2` (configuration not stated), the ED50 was found to be 100 mg/kg.

For the compound `OCC(O)c1nnc2n1-c1ccc(Cl)cc1C(c1ccccc1F)=NC2` (configuration not stated), the 50% effect level (ED50) was put at a dose of 200 mg/kg.

For `C=Cc1nnc2n1-c1ccc(Cl)cc1C(c1ccccc1Cl)=NC2`, the ED50 was 150 mg/kg.

In turn, `C=Cc1nnc2n1-c1ccc(Cl)cc1C(c1ccccc1F)=NC2` yielded an ED50 of 150 mg/kg.

As for `CCOC(=O)NN(/C=C/c1nnc2n1-c1ccc(Cl)cc1C(c1ccccc1Cl)=NC2)C(=O)OCC`, the ED50 was > 400 mg/kg.

`NNC(=O)c1nnc2n1-c1ccc(Cl)cc1C(c1ccccc1)=NC2` showed an ED50 of 500 mg/kg.

Compound `CN(C)CCNC(=O)c1nnc2n1-c1ccc(Cl)cc1C(c1ccccc1)=NC2` returned an ED50 of 300 mg/kg.

As for `Cc1nnc2n1-c1ccc(Cl)cc1C(c1ccccc1)=[N+]([O-])C2`, the ED50 is > 400 mg/kg.

`Cc1nnc2n1-c1ccc(Cl)cc1C(c1ccccc1)=NC2` [ALPRAZOLAM] showed an ED50 of 2 mg/kg.

`CNC1=Nc2ccc(Cl)cc2C(c2ccccc2)=[N+]([O-])C1` [CHLORDIAZEPOXIDE] yielded an ED50 of 100 mg/kg.

Consider `CN1C(=O)CN=C(c2ccccc2)c2cc(Cl)ccc21` [DIAZEPAM], for which it took a dose of 25 mg/kg to reach the 50% effect level (ED50).

Turning to `Clc1ccc2c(c1)C(c1ccccc1)=NCc1nncn1-2` [ESTAZOLAM], the ED50 was > 400 mg/kg.
